These results are taken from patent publication US8946225B2, “Derivatives of 2H pyridazin-3-ones, their preparation and their use as SCD-1 inhibitors” (Pierre Fabre Medicament, priority 2009, dated 2015).

Molecules are shown by their SMILES.

The target of one series is T1, SCD-1 (Homo sapiens, UniProt O00767).
T1 construct: addition of 125 μg of microsomal fraction of HepG2 cells; host or cells: HepG2 human hepatocarcinoma cells (microsomal fraction)
T1 sequence (O00767 1-359): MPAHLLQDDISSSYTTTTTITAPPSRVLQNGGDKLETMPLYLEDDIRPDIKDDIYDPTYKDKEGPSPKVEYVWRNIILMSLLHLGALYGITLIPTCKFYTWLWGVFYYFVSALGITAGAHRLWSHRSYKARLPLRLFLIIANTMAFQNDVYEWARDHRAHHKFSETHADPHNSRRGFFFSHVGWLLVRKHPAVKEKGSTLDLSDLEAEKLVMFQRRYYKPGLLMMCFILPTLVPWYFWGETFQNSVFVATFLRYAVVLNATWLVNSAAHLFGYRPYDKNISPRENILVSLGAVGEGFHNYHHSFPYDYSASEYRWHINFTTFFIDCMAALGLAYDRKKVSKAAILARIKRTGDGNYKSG
The series is described as follows: Human enzymatic activity of SCD-1 from microsomes of HepG2 cells (conversion of [14C] stearic acid to oleic acid, HPLC). It is filed as biochemical. The conditions noted are these: microsomal fraction of HepG2 cells, 62 μM stearic acid, 20 minutes at 37° C., vs vehicle 0.1% DMSO; read-out: HSCD-1 (HEPG2) IC50. The procedure: In vitro: Human enzymatic activity of SCD-1 from microsomes of HepG2 cells after treatment with the inhibitor compounds (% inhibition).
HepG2 cells of human hepatocarcinoma (ATCC, HB-8065) are cultured at confluence then trypsinated. The cell residue is solubilized in 10 mM Tris buffer (pH 7.4) sucrose (250 mM) DTT (1 mM) then the cells are lysed by sonication. The microsomes are obtained after centrifuging at 10,000 g for 20 minutes at 4° C. followed by centifrugation of the supernatant at 100,000 g for 60 minutes at 4° C. The residue is solubilized in 10 mM Tris buffer (pH 7.4) sucrose (250 mM) at 4° C. and the microsomal proteins are assayed and stored at −196° C. (liquid nitrogen).
The enzymatic reaction measures the conversion of stearic acid (C18:0 fatty acid) into oleic acid (C18:1 fatty acid) by SCD-1. The enzymatic reaction is initiated by the addition of 125 μg of microsomal fraction of HepG2 cells to tubes (total reaction volume of 500 μl) containing 62 μM stearic acid (45 μM stearic acid and 17 μM [^14C] stearic acid) in 100 mM phosphate buffer (pH 7.16) with 7.2 mM ATP, 0.54 mM CoA, 6 mM MgCl2, 0.8 mM NADH and the inhibitor compound or vehicle (0.1% DMSO). The tubes are incubated for 20 minutes at 37° C. then the enzymatic reaction is halted by the addition of KOH (12%) and saponification for 30 minutes at 80° C. After acidification (3N HCl), the fatty acids are extracted twice with ethyl ether, evaporated under nitrogen before being solubilized in methanol/dichloromethane (3:1). The reaction product (C18:1) is separated from the reaction substrate (C18:0) by HPLC (Perkin Elmer, C18 reverse phase column) coupled with an in-line radioactivity detector (FlowOne). Enzymatic activity is measured in picomoles of stearic acid converted to oleic acid per minute and per mg of protein. For each inhibitor compound, an IC50 value is determined, compared with the reference enzymatic activity (vehicle 0.1% DMSO). Sterculic acid is the reference inhibitor compound (Gomez F. E., Bauman D. E., Ntambi J. M., Fox B. G. Effects of sterculic acid on stearoyl-CoA desaturase in differentiating […] adipocytes. Biochem Biophys Res Commun. 300 316-326 (2003).

In general, IC50 refers to the point on the concentration scale where inhibition reaches its midpoint. The term melting point denotes the temperature of the solid-liquid transition. Molecule `O=C(Nc1ccn[nH]c1=O)N1CCC(Oc2cc(C(F)(F)F)ccc2Cl)CC1` [Example 72, 4-(2-Chloro-5-trifluoromethyl-phenoxy)-piperidine-1-carboxylic acid (3-oxo-2,3-dihydro-pyridazin-4-yl)-amide] had a melting point of 158 °C. On SCD-1, the IC50 worked out at 10 nM.

`Cn1nccc(NCC(=O)N2CCC(CNc3ccccc3C(F)(F)F)CC2)c1=O` [Example 31, 2-Methyl-4-(2-oxo-2-{4-[(2-trifluoromethyl-phenylamino)-methyl]-piperidin-1-yl}-ethylamino)-2H-pyridazin-3-one]: the melting point was 182 °C. The IC50 on SCD-1 is approximately 300 nM.

Molecule `Cc1ccc(F)cc1OC1CCN(C(=O)Nc2ccnn(C)c2=O)CC1` [Example 68, 4-(5-fluoro-2-methyl-phenoxy)-piperidine-1-carboxylic acid (2-methyl-3-oxo-2,3-dihydro-pyridazin-4-yl)-amide] gave a melting point of 142 °C. Also, at SCD-1, the concentration for half-maximal inhibition (IC50) was 100 to 1000 nM.

With `Cn1nccc(NCC(=O)N2CCC(Oc3cc(Br)ccc3Cl)CC2)c1=O` [Example 6, 4-{2-[4-(5-Bromo-2-chloro-phenoxy)-piperidin-1-yl]-2-oxo-ethylamino}-2-methyl-2H-pyridazin-3-one], the melting point came to 160 °C. Besides, the IC50 at SCD-1 stood at 3 nM.

Turning to `Cn1nccc(NC(=O)N2CCC(Oc3cc(F)ccc3F)CC2)c1=O` [Example 69, 4-(2,5-difluoro-phenoxy)-piperidine-1-carboxylic acid (2-methyl-3-oxo-2,3-dihydro-pyridazin-4-yl)-amide], the melting point was found to be 138 °C. Also, at SCD-1, the 50% inhibitory concentration (IC50) fell in the range of 100 to 1000 nM.

`Cn1nccc(NC(=O)N2CCC(Oc3ccc(F)c(C(F)(F)F)c3)CC2)c1=O` [Example 60, 4-(4-fluoro-5-trifluoromethyl-phenoxy)-piperidine-1-carboxylic acid (2-methyl-3-oxo-2,3-dihydro-pyridazin-4-yl)-amide] gave a melting point of 127 °C. Besides, on SCD-1, the IC50 lay within 100 to 1000 nM.

The molecule `Cn1nccc(NC(=O)C(=O)N2CCC(Oc3cc(C(F)(F)F)ccc3Cl)CC2)c1=O` [Example 35, 2-[4-(2-Chloro-5-trifluoromethyl-phenoxy)-piperidin-1-yl]-N-(2-methyl-3-oxo-2,3-dihydro-pyridazin-4-yl)-2-oxo-acetamide] came in with a melting point of 205 °C. Also, the half-inhibitory concentration (IC50) at SCD-1 lay in the range of 100 to 1000 nM.

`Cc1ccc(F)cc1OC1CCN(C(=O)CNc2ccnn(C)c2=O)CC1` [Example 14, 4-{2-[4-(5-Fluoro-2-methyl-phenoxy)-piperidin-1-yl]-2-oxo-ethylamino}-2-methyl-2H-pyridazin-3-one]: the melting point worked out at 176 °C. For the same molecule, at SCD-1, the concentration for half-maximal inhibition (IC50) lay in the range of 100 to 1000 nM.

The molecule `Cn1nccc(NC(=O)N2CCC(Oc3cc(Br)ccc3Cl)CC2)c1=O` [Example 63, 4-(2-chloro-5-bromo-phenoxy)-piperidine-1-carboxylic acid (2-methyl-3-oxo-2,3-dihydro-pyridazin-4-yl)-amide] had a melting point of 124 °C. The IC50 at SCD-1 was 30 nM.

For `Cn1ncc(NC(=O)N2CCC(Oc3cc(C(F)(F)F)ccc3Cl)CC2)cc1=O` [Example 73, 4-(2-Chloro-5-trifluoromethyl-phenoxy)-piperidine-1-carboxylic acid (1-methyl-6-oxo-1,6-dihydro-pyridazin-4-yl)-amide], the melting point was determined as 136 °C. In addition, the 50% inhibitory concentration (IC50) on SCD-1 is 10 to 100 nM.

For the molecule `Cc1ccc(Cl)c(OC2CCN(C(=O)Nc3ccnn(C)c3=O)CC2)c1` [Example 56, 4-(2-chloro-5-methyl-phenoxy)-piperidine-1-carboxylic acid (2-methyl-3-oxo-2,3-dihydro-pyridazin-4-yl)-amide], the melting point was determined as 133 °C. Further, the IC50 at SCD-1 was in the range of 100 to 1000 nM.

Regarding `Cc1ccc(C(C)C)cc1OC1CCN(C(=O)CNc2ccnn(C)c2=O)CC1` [Example 16, 4-{2-[4-(5-Isopropyl-2-methyl-phenoxy)-piperidin-1-yl]-2-oxo-ethylamino}-2-methyl-2H-pyridazin-3-one], the melting point came out at 159 °C. At SCD-1, the IC50 was 30 to 100 nM.

On to `Cn1nccc(NC(=O)N2CCC(Oc3cc(F)ccc3C(F)(F)F)CC2)c1=O` [Example 61, 4-(5-fluoro-2-trifluoromethyl-phenoxy)-piperidine-1-carboxylic acid (2-methyl-3-oxo-2,3-dihydro-pyridazin-4-yl)-amide], for which the melting point turned out to be 145 °C. For the same molecule, the half-maximal inhibitory concentration (IC50) on SCD-1 lay in the range of 10 to 100 nM.

Turning to `Cn1nccc(NC(=O)N2CCC(Oc3cc(C(F)(F)F)ccc3Cl)CC2)c1=O` [Example 52, 4-(2-Chloro-5-trifluoromethyl-phenoxy)-piperidine-1-carboxylic acid (2-methyl-3-oxo-2,3-dihydro-pyridazin-4-yl)-amide], the melting point worked out at 148 °C. For the same molecule, at SCD-1, the concentration for half-maximal inhibition (IC50) was 30 to 100 nM.

Take `Cn1nccc(NC(=O)N2CCC(Oc3ccccc3Cl)CC2)c1=O` [Example 64, 4-(2-chloro-phenoxy)-piperidine-1-carboxylic acid (2-methyl-3-oxo-2,3-dihydro-pyridazin-4-yl)-amide]: the melting point was 124 °C. Moreover, at SCD-1, the IC50 fell in the range of 300 to 1000 nM.

For the molecule `Cn1nccc(NCC(=O)N2CC(Oc3ccccc3C(F)(F)F)C2)c1=O` [Example 27, 2-Methyl-4-{2-oxo-2-[3-(2-trifluoromethyl-phenoxy)-azetidin-1-yl]-ethylamino}-2H-pyridazin-3-one], the melting point worked out at 122 °C. Also, the IC50 at SCD-1 was in the range of 3000 to 10000 nM.

As to `Cn1nccc(NC(=O)N2CCC(Oc3ccc(Cl)cc3Cl)CC2)c1=O` [Example 66, 4-(2,4-dichloro-phenoxy)-piperidine-1-carboxylic acid (2-methyl-3-oxo-2,3-dihydro-pyridazin-4-yl)-amide], the melting point was 140 °C. For the same molecule, the concentration for half-maximal inhibition (IC50) on SCD-1 was in the range of 100 to 1000 nM.

`Cc1ccc(C(C)C)cc1OC1CCN(C(=O)Nc2ccnn(C)c2=O)CC1` [Example 57, 4-(2-methyl-5-isopropyl-phenoxy)-pipéridine-1-carboxylic acid (2-methyl-3-oxo-2,3-dihydro-pyridazin-4-yl)-amide] came in with a melting point of 104 °C. Further, the IC50 at SCD-1 lay within 10 to 100 nM.

With `Cn1nccc(NCC(=O)N2CCC(Oc3cc(F)cc(C(F)(F)F)c3)CC2)c1=O` [Example 3, 4-{2-[4-(3-Fluoro-5-trifluoromethyl-phenoxy)-piperidin-1-yl]-2-oxo-ethylamino}-2-methyl-2H-pyridazin-3-one], the melting point is 175 °C. Also, the half-inhibitory concentration (IC50) on SCD-1 was 100 to 1000 nM.

Regarding `Cn1nccc(NCC(=O)N2CCC(Oc3cc(C(F)(F)F)ccc3Cl)CC2)c1=O` [Example 4, 4-{2-[4-(2-Chloro-5-trifluoromethyl-phenoxy)-piperidin-1-yl]-2-oxo-ethylamino}-2-methyl-2H-pyridazin-3-one], the melting point worked out at 158 °C. At SCD-1, the half-maximal inhibitory concentration (IC50) lay within 10 to 100 nM.

On to `Cn1nccc(NCC(=O)N2CCC(Oc3cc([N+](=O)[O-])ccc3Cl)CC2)c1=O` [Example 9, 4-{2-[4-(2-Chloro-5-nitro-phenoxy)-piperidin-1-yl]-2-oxo-ethylamino}-2-methyl-2H-pyridazin-3-one], for which the melting point was 162 °C. For the same molecule, the IC50 on SCD-1 lay in the range of 100 to 1000 nM.

`Cn1nccc(NC(=O)N2CCC(Oc3cccc(C(F)(F)F)c3)CC2)c1=O` [Example 58, 4-(5-trifluoromethyl-phenoxy)-piperidine-1-carboxylic acid (2-methyl-3-oxo-2,3-dihydro-pyridazin-4-yl)-amide] registered a melting point of 101 °C. Further, the half-maximal inhibitory concentration (IC50) on SCD-1 lay within 10 to 100 nM.

With `Cn1nccc(NC(=O)N2CCC(Oc3cc(Cl)ccc3Cl)CC2)c1=O` [Example 62, 4-(2,5-dichloro-phenoxy)-piperidine-1-carboxylic acid (2-methyl-3-oxo-2,3-dihydro-pyridazin-4-yl)-amide], the melting point was 125 °C. Besides, the 50% inhibitory concentration (IC50) at SCD-1 was 30 nM.
